This is an account of results in patent US20260365628A1, “SUBSTITUTED 3,4-DIHYDROQUINOLINONE INHIBITORS OF TSHR” (Septerna, Inc., priority 2022, published 2026).

pIC50: −log10 of the molar value.

T1 sequence (P16473 21-764): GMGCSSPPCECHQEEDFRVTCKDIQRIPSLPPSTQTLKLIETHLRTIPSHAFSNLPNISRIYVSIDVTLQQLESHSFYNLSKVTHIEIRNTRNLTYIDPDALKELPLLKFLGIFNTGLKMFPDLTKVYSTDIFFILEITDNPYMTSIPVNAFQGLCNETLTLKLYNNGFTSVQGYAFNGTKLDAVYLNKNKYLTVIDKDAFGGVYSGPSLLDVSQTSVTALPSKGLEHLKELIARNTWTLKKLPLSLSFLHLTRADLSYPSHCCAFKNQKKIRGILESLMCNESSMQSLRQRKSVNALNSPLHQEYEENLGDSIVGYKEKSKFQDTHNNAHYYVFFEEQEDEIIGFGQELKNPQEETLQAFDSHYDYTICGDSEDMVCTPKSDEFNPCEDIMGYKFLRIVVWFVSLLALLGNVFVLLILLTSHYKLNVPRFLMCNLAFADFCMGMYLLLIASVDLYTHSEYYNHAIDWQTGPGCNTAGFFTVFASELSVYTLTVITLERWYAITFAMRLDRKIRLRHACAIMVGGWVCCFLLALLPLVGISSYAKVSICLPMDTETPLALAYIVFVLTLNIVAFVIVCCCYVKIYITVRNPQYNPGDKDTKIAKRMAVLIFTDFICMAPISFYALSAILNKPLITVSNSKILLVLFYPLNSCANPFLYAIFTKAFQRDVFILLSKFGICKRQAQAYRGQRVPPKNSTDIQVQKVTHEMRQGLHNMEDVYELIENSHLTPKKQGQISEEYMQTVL

This test addresses T1, hTSHR (Homo sapiens, UniProt P16473).
T1 construct: expressed in transfected cells
The test is described as follows: hTSHR TR-FRET cAMP Assay (inhibition of M22-stimulated cAMP production). Format: cell-based. The following applies: Expi293F Inducible cells stably expressing hTSHR; cAMP HTRF; stimulated with EC80 of anti-TSHR antibody M22; 15 min compound preincubation, 30 min at 37° C.; read-out: Activity (IC50 bins). The method, boiled down: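 Readout was a cAMP HTRF ratio of 655/620 nm after lysis, scaled between the EC80 M22 signal (0% inhibition) and no-agonist vehicle (100%). Frozen induced Expi293F-hTSHR cells saw test compounds (0.5% DMSO) for 15 min at 37 °C before 30 min of M22 stimulation at EC80.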
Background: In TR-FRET formats the signal depends on donor and acceptor labels being close together.
One may read the pIC50 as −log10 of the IC50, conventionally taken in molar units. `C[C@H]1Oc2cc(NC(=O)NC3(C)CC(F)(F)C3)ccc2N(Cc2cccc(C(F)(F)F)n2)C1=O` [Example 231, (R)-1-(3,3-difluoro-1-methylcyclobutyl)-3-(2-methyl-3-oxo-4-((6-(trifluoromethyl)pyridin-2-yl)methyl)-3,4-dihydro-2H-benzo[b][1,4]oxazin-7-yl)urea]: the pIC50 is 6.00 to 7.00.

In the case of `C[C@H]1Oc2cc(NC(=O)NC3(C(F)(F)F)CCC3)ccc2N(Cc2cccc(C(F)(F)F)n2)C1=O` [Example 232, (R)-1-(2-methyl-3-oxo-4-((6-(trifluoromethyl)pyridin-2-yl)methyl)-3,4-dihydro-2H-benzo[b][1,4]oxazin-7-yl)-3-(1-(trifluoromethyl)cyclobutyl)urea], the pIC50 was 6.00 to 7.00.

For `COCC1(NC(=O)Nc2ccc3c(c2)O[C@H](C)C(=O)N3Cc2cccc(C(F)(F)F)n2)CCC1` [Example 233, (R)-1-(1-(methoxymethyl)cyclobutyl)-3-(2-methyl-3-oxo-4-((6-(trifluoromethyl)pyridin-2-yl)methyl)-3,4-dihydro-2H-benzo[b][1,4]oxazin-7-yl)urea], the negative logarithm of the IC50 (pIC50) is 6.00 to 7.00.

`C[C@H]1Oc2cc(NC(=O)NC3(C(F)(F)F)CCCC3)ccc2N(Cc2cccc(C(F)(F)F)n2)C1=O` [Example 234, (R)-1-(2-methyl-3-oxo-4-((6-(trifluoromethyl)pyridin-2-yl)methyl)-3,4-dihydro-2H-benzo[b][1,4]oxazin-7-yl)-3-(1-(trifluoromethyl)cyclopentyl)urea]: the negative logarithm of the IC50 (pIC50) is over 7.00.

In the case of `C[C@H]1Oc2cc(NC(=O)NC3CCC(F)(F)CC3)ccc2N(Cc2cccc(C(F)(F)F)n2)C1=O` [Example 235, (R)-1-(4,4-difluorocyclohexyl)-3-(2-methyl-3-oxo-4-((6-(trifluoromethyl)pyridin-2-yl)methyl)-3,4-dihydro-2H-benzo[b][1,4]oxazin-7-yl)urea], the pIC50 is 6.00 to 7.00.

Turning to `C[C@H]1Oc2cc(NC(=O)NC(C)(C)CCO)ccc2N(Cc2ccccc2)C1=O` [Example 236, (R)-1-(4-benzyl-2-methyl-3-oxo-3,4-dihydro-2H-benzo[b][1,4]oxazin-7-yl)-3-(4-hydroxy-2-methylbutan-2-yl)urea], the pIC50 is 6.00 to 7.00.

Turning to `C[C@H]1Oc2cc(NC(=O)NC3CCCC3)ccc2N(Cc2ccccc2)C1=O` [Example 237, (R)-1-(4-benzyl-2-methyl-3-oxo-3,4-dihydro-2H-benzo[b][1,4]oxazin-7-yl)-3-cyclopentylurea], the pIC50 is over 7.00.

As to `C[C@H]1Oc2cc(NC(=O)NC(C)(C)[C@H]3C[C@@H](O)C3)ccc2N(Cc2ccccc2)C1=O` [Example 238], the pIC50 is under 6.00.

Regarding `CC(C)(O)CNC(=O)Nc1ccc2c(c1)ncc(=O)n2Cc1cccc(OC(F)(F)F)c1` [Example 239, 1-(2-hydroxy-2-methylpropyl)-3-(2-oxo-1-(3-(trifluoromethoxy)benzyl)-1,2-dihydroquinoxalin-6-yl)urea], the pIC50 is under 6.00.

As to `CC(C)(C)CNC(=O)Nc1ccc2c(c1)ncc(=O)n2Cc1cccc(OC(F)(F)F)c1` [Example 240, 1-neopentyl-3-(2-oxo-1-(3-(trifluoromethoxy)benzyl)-1,2-dihydroquinoxalin-6-yl)urea], the pIC50 is 6.00 to 7.00.

As for `CC(C)(C#N)CNC(=O)Nc1ccc2c(c1)ncc(=O)n2Cc1cccc(OC(F)(F)F)c1` [Example 241, 1-(2-cyano-2-methylpropyl)-3-(2-oxo-1-(3-(trifluoromethoxy)benzyl)-1,2-dihydroquinoxalin-6-yl)urea], the pIC50 was under 6.00.

As for `CC(C)(CO)CNC(=O)Nc1ccc2c(c1)ncc(=O)n2Cc1cccc(OC(F)(F)F)c1` [Example 242, 1-(3-hydroxy-2,2-dimethylpropyl)-3-(2-oxo-1-(3-(trifluoromethoxy)benzyl)-1,2-dihydroquinoxalin-6-yl)urea], the pIC50 was under 6.00.

Take `CC(C)(CC(F)(F)F)NC(=O)Nc1ccc2c(c1)ncc(=O)n2Cc1cccc(OC(F)(F)F)c1` [Example 243, 1-(2-oxo-1-(3-(trifluoromethoxy)enzyl)-1,2-dihydroquinoxalin-6-yl)-3-(4,4,4-trifluoro-2-methylbutan-2-yl)urea]: the pIC50 is 6.00 to 7.00.

For `CC(C)(CNC(=O)Nc1ccc2c(c1)ncc(=O)n2Cc1cccc(OC(F)(F)F)c1)C(F)(F)F` [Example 244, 1-(2-oxo-1-(3-(trifluoromethoxy)benzyl)-1,2-dihydroquinoxalin-6-yl)-3-(3,3,3-trifluoro-2,2-dimethylpropyl) urea], the pIC50 was 6.00 to 7.00.

In the case of `CC(C)(CC#N)NC(=O)Nc1ccc2c(c1)ncc(=O)n2Cc1cccc(OC(F)(F)F)c1` [Example 245, 1-(1-cyano-2-methylpropan-2-yl)-3-(2-oxo-1-(3-(trifluoromethoxy)enzyl)-1,2-dihydroquinoxalin-6-yl)urea], the pIC50 was under 6.00.

As to `CC(c1cccc(C2CCC2)c1)n1c(=O)cnc2cc(NC(=O)NC(C)(C)C)ccc21` (stereo not shown) [Example 246, 1-(tert-butyl)-3-(1-(1-(3-cyclobutylphenyl)ethyl)-2-oxo-1,2-dihydroquinoxalin-6-yl)urea], the pIC50 is 6.00 to 7.00.

For the compound `CC(c1cc(F)cc(OC(F)(F)F)c1)n1c(=O)cnc2cc(NC(=O)NC(C)(C)C)ccc21` (stereo not shown) [Example 247, 1-(tert-butyl)-3-(1-(1-(3-fluoro-5-(tri-fluoromethoxy)phenyl)ethyl)-2-oxo-1,2-dihydro-quinoxalin-6-yl)urea], the pIC50 is 6.00 to 7.00.

In the case of `CC(c1cccc(CCC2COC2)c1)n1c(=O)cnc2cc(NC(=O)NC(C)(C)C)ccc21` (stereo not shown) [Example 248, 1-(tert-butyl)-3-(1-(1-(3-(2-(oxetan-3-yl)ethyl)phenyl)ethyl)-2-oxo-1,2-dihydro-quinoxalin-6-yl)urea], the pIC50 was under 6.00.

On to `CC(c1ccc2cnn(CCC(F)(F)F)c2c1)n1c(=O)cnc2cc(NC(=O)NC(C)(C)C)ccc21` (stereo not shown) [Example 249, 1-(tert-butyl)-3-(2-oxo-1-(1-(1-(3,3,3-trifluoropropyl)-1H-indazol-6-yl)ethyl)-1,2-dihydro-quinoxalin-6-yl)urea], for which the pIC50 is under 6.00.

For the compound `CC(c1cccc(CCOCc2ccncc2)c1)n1c(=O)cnc2cc(NC(=O)NC(C)(C)C)ccc21` (stereo not shown) [Example 250, 1-(tert-butyl)-3-(2-oxo-1-(1-(3-(2-(pyridin-4-ylmethoxy)ethyl)phenyl)ethyl)-1,2-dihydro-quinoxalin-6-yl)urea], the pIC50 was under 6.00.

As for `CC(c1cccc2c1cnn2CCC(F)(F)F)n1c(=O)cnc2cc(NC(=O)NC(C)(C)C)ccc21` (stereo not shown) [Example 251, 1-(tert-butyl)-3-(2-oxo-1-(1-(1-(3,3,3-trifluoropropyl)-1H-indazol-4-yl)ethyl)-1,2-dihydro-quinoxalin-6-yl)urea], the pIC50 was under 6.00.

For `CC(c1cccc2ncccc12)n1c(=O)cnc2cc(NC(=O)NC(C)(C)C)ccc21` (stereo not shown) [Example 252, 1-(tert-butyl)-3-(2-oxo-1-(1-(quinolin-5-yl)ethyl)-1,2-dihydro-quinoxalin-6-yl)urea], the negative-log IC50 (pIC50) is under 6.00.

For `CC(c1cc(C(F)(F)F)ccn1)n1c(=O)cnc2cc(NC(=O)NC(C)(C)C)ccc21` (stereo not shown) [Example 253, 1-(tert-butyl)-3-(2-oxo-1-(1-(4-(trifluoromethyl)pyridin-2-yl)ethyl)-1,2-dihydro-quinoxalin-6-yl)urea], the pIC50 was under 6.00.

On to `CC(c1nc(Cl)ccc1Cl)n1c(=O)cnc2cc(NC(=O)NC(C)(C)C)ccc21` (stereo not shown) [Example 254, 1-(tert-butyl)-3-(1-(1-(3,6-dichloropyridin-2-yl)ethyl)-2-oxo-1,2-dihydro-quinoxalin-6-yl)urea], for which the pIC50 is 6.00 to 7.00.

For `C[C@H]1Oc2cc(NC(=O)NC3(C)CCC3)ccc2N([C@@H](C)c2ccccc2)C1=O` [Example 255, 1-((R)-2-methyl-3-oxo-4-((S)-1-phenylethyl)-3,4-dihydro-2H-benzo[b][1,4]oxazin-7-yl)-3-(1-methylcyclobutyl)urea], the pIC50 is over 7.00.

As for `C[C@H]1Oc2cc(NC(=O)NC3(C)CCCC3)ccc2N([C@@H](C)c2ccccc2)C1=O` [Example 256, 1-((R)-2-methyl-3-oxo-4-((S)-1-phenyl-ethyl)-3,4-dihydro-2H-benzo[b][1,4]oxazin-7-yl)-3-(1-methylcyclopentyl)-urea], the pIC50 is over 7.00.

With `C[C@H]1Oc2cc(NC(=O)NC3(C(F)(F)F)CCCC3)ccc2N([C@@H](C)c2ccccc2)C1=O` [Example 257, 1-((R)-2-methyl-3-oxo-4-((S)-1-phen-ylethyl)-3,4-dihydro-2H-benzo[b][1,4]oxazin-7-yl)-3-(1-(trifluoromethyl)-cyclopentyl)urea], the pIC50 is over 7.00.

With `C[C@H]1Oc2cc(NC(=O)NC3CCC(F)(F)CC3)ccc2N([C@@H](C)c2ccccc2)C1=O` [Example 258, 1-(4,4-difluoro-cyclohexyl)-3-((R)-2-methyl-3-oxo-4-((S)-1-phenyl-ethyl)-3,4-dihydro-2H-benzo[b][1,4]oxazin-7-yl)urea], the pIC50 is 6.00 to 7.00.

As for `C[C@H]1Oc2cc(NC(=O)NC3(C(F)(F)F)CCC3)ccc2N([C@@H](C)c2ccccc2)C1=O` [Example 259, 1-((R)-2-methyl-3-oxo-4-((S)-1-phenylethyl)-3,4-dihydro-2H-benzo [b][1,4]oxazin-7-yl)-3-(1-(trifluoro-methyl)cyclo-butyl)urea], the pIC50 was over 7.00.

On to `C[C@H]1Oc2cc(NC(=O)NC3(C)CC(F)(F)C3)ccc2N([C@@H](C)c2ccccc2)C1=O` [Example 260, 1-(3,3-difluoro-1-methylcyclobutyl)-3-((R)-2-methyl-3-oxo-4-((S)-1-phen-ylethyl)-3,4-dihydro-2H-benzo[b][1,4]oxazin-7-yl)urea], for which the pIC50 is 6.00 to 7.00.

As to `COCC1(NC(=O)Nc2ccc3c(c2)O[C@H](C)C(=O)N3[C@@H](C)c2ccccc2)CCC1` [Example 261, 1-(1-(methoxy-methyl)cyclobutyl)-3-((R)-2-methyl-3-oxo-4-((S)-1-phen-ylethyl)-3,4-dihydro-2H-benzo [b][1,4]oxazin-7-yl)urea], the pIC50 was 6.00 to 7.00.
